Measured values published in patent publication US6225478A, “Iridoid derivatives and neovascularization inhibitors containing the same as active ingredient” (Tsumura & Co., priority 1999, dated 2001).

Key:
[1] = test system: human umbilical-vein endothelial cells (HUVEC); experiment: Tube Formation Assay (TFA) Test, HUVEC in collagen gel; format: cell-based; conditions: Tables 75-83, 0.32 mM sample solution, method as for Compounds 1 through 60; for inhibition at 320 µM (stock): Homo sapiens, HUVEC, read-out: TFA Inhibition rate (%)
Protocol: Furthermore, the sample liquids of compounds used in the CPA and CMA tests were prepared in the manner described below. Firstly, after weighing out each compound, a calculated amount of DMSO was added. After dissolving the compound in the DMSO, phosphate buffered physiological saline (PBS (-)) was added to bring the sample concentration to 1 mg/ml in PBS (-). The amount of DMSO used to dissolve the compounds was adjusted in advance to that the concentration of DMSO at that time was 5%. The resulting liquids were diluted 10-fold with 5% DMSO-PBS (-) solution to prepare sample solutions having a concentration of 0.1 mg/ml. In the TFA test, 320 μl of the prepared 1 mg/ml sample solutions were removed followed by addition of 680 μl of PBS (-) to prepare samples having a concentration of […]. Moreover, 100 μl of this solution was removed followed by addition of 900 μl of PBS (-) to dilute 10-fold and prepare samples having a concentration of 1 μg/ml. P [Cell Proliferation Assay (CPA) Test]
To begin with, 8 volumes of Type 1-A cell matrix (manufactured by Gibco Co.), 1 volume of 10×M119, and 1 volume of reconstituted buffer [200 mM HEPES, 0.05 N sodium hydroxide, 260 mM sodium bicarbonate] were slowly mixed under cooling with ice while avoiding bubbling to form a collagen gel. This collagen gel was distributed in a NUNC 24-well plate at 310 μl/well followed by allowing to stand undisturbed for 2 hours at 37° C. to solidify the gel.
Next, the 7th subculture of HUVEC (1×10^5 cells/ml) obtained from the first generation in the same manner as above were disseminated at 500 μl/well. The cells were cultured for 2 hours at 37° C. to allow the cells to make contact with the collagen. After then removing the medium by aspiration, 50 μl of sample solution were added followed by addition of 310 μl/well of freshly prepared collagen gel and culturing for 1 hour and 10 minutes at 37° C. to solidify the double-layer gel.
1 ml/well of M-199 medium containing 20% FCS, 30 ng /ml of b-FGF and 0.1 μM PMA were added to the wells followed by culturing for 20 hours at 37° C. in the presence of 5% CO2.
Measurement of the lengths of the formed tubes was performed using the public domain NIH Image with a computer.
Evaluation was performed by calculating the inhibition rate (%) of tube formation according to the following formula.
Inhibition rate (%)=100-((formed tube length in presence of sample-formed tube length in presence of control (-))×100/(formed tube length in presence of control (+)-formed tube length in presence of control (-)))
(§1) Samples were prepared using the present compounds of Compound No. I-60 through I-315. More specifically, 32 μl of a 20 mM sample solution dissolved in dimethylsulfoxide (DMSO) were removed and brought to a volume of 1 ml with phosphate-buffered saline (PBS) to prepare a sample solution having a concentration of 0.32 mM (containing 3.2% DMSO).
The testing method used for these compounds was the same as that used for the compounds of Compound No. 1 through 60 previously described.

HUFEC = experiment: Cell Migration Assay (CMA) Test, inhibitory rate with control (-) correction; format: cell-based, human; conditions: 125 μl of 0.32 mM sample solution in 4.0 ml medium, 80% or more = remarkable; for inhibition at 320 µM (stock): Homo sapiens, 24 h
Protocol: as §1
After disseminating the 7th subculture of […] obtained from the first generation at 4 ml/well (3.0×10^5 cells/well) in a collagen-coated 6-well plate (NUNC), the cells were cultured for 48 hours at 37° C. in the presence of 5% CO2. The cells reached nearly a completely confluent state as a result of this culturing.
A double-edged, disposable razor blade was divided into four sections, of which one of those sections was pinched between a pair of forceps. Using this piece of razor blade, the cell surface in the above confluent state was scraped off.
After washing the surface of the wells from which the cells had been scraped off with medium, 4.0 ml of fresh M199 (2+) medium were placed in the wells. 4.0 ml of M199 medium were added to the control (-) well.
125 μl of sample solution (0.32 mM, containing 3.2% dimethylsulfoxide) were added to the wells.
125 μl of PBS solution containing 3.2% dimethylsulfoxide were added to the control wells instead of sample. The cells were cultured for 24 hours at 37° C. in the presence of 5% CO2. After discarding the culture liquid, the cells were fixed for 30 minutes with methanol. Next, after […] the cells for 4 hours with Giemsa stain, the plates were washed with tap water and air dried.
Measurement of cell migration was performed by microscopically counting the number of cells that had newly migrated within the range of a 1 mm×1 mm block. […] The total number of cells counted in blocks 1 through 5 were then totaled to determine the overall total number of cells. Four fields were counted for each well.
Evaluation was performed determining the cell migration inhibitory rate (%) according to the following equation.
Inhibitory rate=100-((number of migrating cells to which sample was added-number of migrating cells of control (-))×100/(number of migrating cells of control (+)-number of migrating cells of control (-)))
If this inhibitory rate was 80% or more, cell migration was assessed as being remarkable.

| SMILES | inhibition at 320 µM (stock) [1] [%] | inhibition at 320 µM (stock) (HUFEC) [%] | TFA (inhibition rate, %) [1] [%] | CMA Inhibition rate (%) (HUFEC; 24 hours) |
| --- | --- | --- | --- | --- |
| CNC(=O)O[C@@H]1OC=C(C(=O)OC)[C@H]2CC=C(CF)C12 (stereo in doubt) [I-314, (1S,4aS,7aR)-7-(fluoromethyl)-1-(methylcarbamoyloxy)-1,4a,5,7a-tetrahydrocyclopenta [c] pyrane-4-carboxylic acid methylester] | 9.4 | 47.2 |  |  |
| CNC(=O)O[C@@H]1OC=C(C(=O)OC)[C@H]2CC=C(CO)C12 (stereo in doubt) [I-315, (1S,4aS,7aR)-7-(hydroxy-methyl)-1-(methylcarbamoyloxy)-1,4a,5,7a-tetrahydrocyclopenta [c] pyrane-4-carboxylic acid methylester] | 8.6 | 36.4 |  |  |
| CNC(=O)O[C@@H]1OC=C(C(N)=O)[C@H]2C[C@@H]3O[C@]3(C)[C@@H]12 [I-61] | 18.9 | 82.1 |  |  |
| CNC(=O)O[C@@H]1OC=C(C(=O)Nc2nccs2)[C@H]2C[C@@H]3O[C@]3(C)[C@@H]12 [I-62] | 28.4 | 10.6 |  |  |
| CNC(=O)O[C@@H]1OC=C(C(=O)NCc2nc3ccccc3[nH]2)[C@H]2C[C@@H]3O[C@]3(C)[C@@H]12 [I-63] | 41.7 | 14.2 |  |  |
| CNC(=O)O[C@@H]1OC=C(C(=O)NCCS)[C@H]2C[C@@H]3O[C@]3(C)[C@@H]12 [I-64] | 5.2 | 9.4 |  |  |
| CCOC(=O)CNC(=O)C1=CO[C@@H](OC(=O)NC)[C@H]2[C@@H]1C[C@@H]1O[C@]21C [I-65] | 32.4 | 73.4 |  |  |
| C[C@]12O[C@H]1C[C@@H]1C(C(=O)O)=CO[C@@H](OC(=O)NCCCl)[C@@H]12 [I-66] | 19.7 | 30.5 |  |  |
| C[C@]12O[C@H]1C[C@@H]1C(C(=O)O)=CO[C@@H](OC(=O)NCCCl)[C@@H]12 [I-67] |  |  | 19.7 | 29.5 |
| C[C@]12O[C@H]1C[C@@H]1C(C(=O)N3CCN(CCO)CC3)=CO[C@@H](OC(=O)NCCCl)[C@@H]12 [I-68] | 9.2 | 65.6 |  |  |
| C[C@@]12O[C@@H]1C[C@@H]1C(C(=O)O)=CO[C@@H](OC(=O)NCCCl)[C@@H]12 [I-69] | 18 | 18.8 |  |  |
| COC(=O)C1=CO[C@@H](OC(N)=O)[C@@H]2C(C)=CC[C@H]12 [I-70] | 75.4 | 7.1 |  |  |
| COC(=O)C1=CO[C@@H](OC(=O)N2CCN(CCO)CC2)[C@@H]2C(C)=CC[C@H]12 [I-71] | 4.1 | 25.4 |  |  |
| CCCCCCNC(=O)O[C@@H]1OC=C(C(=O)OC)[C@H]2CC=C(C)[C@@H]12 [I-72] | 5.9 | 42.9 |  |  |
| COC(=O)C1=CO[C@@H](OC(=O)NN2CCN(C)CC2)[C@@H]2C(C)=CC[C@H]12 [I-73] | 8.2 | 15.6 |  |  |
| COC(=O)C1=CO[C@@H](OC(=O)NCc2ccc(Cl)c(Cl)c2)[C@@H]2C(C)=CC[C@H]12 [I-74] | 5.8 | 23.4 |  |  |
| COC(=O)C1=CO[C@@H](OC(=O)NCc2ccccn2)[C@@H]2C(C)=CC[C@H]12 [I-75] | 4.3 | 11.7 |  |  |
| COC(=O)C1=CO[C@@H](OC(=O)NCc2cccnc2)[C@@H]2C(C)=CC[C@H]12 [I-76] | 4.6 | 7.6 |  |  |
| COC(=O)C1=CO[C@@H](OC(=O)NCc2ccc(F)cc2F)[C@@H]2C(C)=CC[C@H]12 [I-77] | 7.2 | 5.9 |  |  |

| SMILES | inhibition at 320 µM (stock) [1] [%] | inhibition at 320 µM (stock) (HUFEC) [%] | TFA (inhibition rate, %) [1] [%] | CMA Inhibition rate (%) (HUFEC; 24 hours) |
| --- | --- | --- | --- | --- |
| COC(=O)C1=CO[C@@H](OC(=O)NCC2CCCO2)[C@@H]2C(C)=CC[C@H]12 (stereo partly shown) [I-78] | 5.1 | 23.4 |  |  |
| COC(=O)C1=CO[C@@H](OC(=O)NCCc2ccccn2)[C@@H]2C(C)=CC[C@H]12 [I-79] | 4.7 | 13.7 |  |  |
| COC(=O)C1=CO[C@@H](OC(=O)NCc2ccccc2)[C@@H]2C(C)=CC[C@H]12 [I-80] | 8.1 | 5.9 |  |  |
| COC(=O)C1=CO[C@@H](OC(=O)N(C)Cc2ccccc2)[C@@H]2C(C)=CC[C@H]12 [I-81] | 8.3 | 31.2 |  |  |
| COC(=O)C1=CO[C@@H](OC(=O)NCCc2ccccc2F)[C@@H]2C(C)=CC[C@H]12 [I-82] | 5.5 | 13.7 |  |  |
| COC(=O)C1=CO[C@@H](OC(=O)NCc2ccc(OC)cc2)[C@@H]2C(C)=CC[C@H]12 [I-83] | 21.4 | 50 |  |  |
| COC(=O)C1=CO[C@@H](OC(=O)NCCO)[C@@H]2C(C)=CC[C@H]12 [I-84] | 21.9 | 8.8 |  |  |
| COC(=O)C1=CO[C@@H](OC(=O)N2CCOCC2)[C@@H]2C(C)=CC[C@H]12 [I-85] | 15.6 | 31 |  |  |
| COC(=O)C1=CO[C@@H](OC(=O)N(C)CCN(C)C)[C@@H]2C(C)=CC[C@H]12 [I-86] | 5.2 | 9.9 |  |  |
| COC(=O)C1=CO[C@@H](OC(=O)NCC(C)C)[C@@H]2C(C)=CC[C@H]12 [I-87] | 8.6 | 8 |  |  |
| COC(=O)C1=CO[C@@H](OC(=O)NCC2CCCCC2)[C@@H]2C(C)=CC[C@H]12 [I-88] | 4.7 | 16.5 |  |  |
| COC(=O)C1=CO[C@@H](OC(=O)NC2CCN(Cc3ccccc3)CC2)[C@@H]2C(C)=CC[C@H]12 [I-89] | 31.3 | 9.9 |  |  |
| CCCN(C)C(=O)O[C@@H]1OC=C(C(=O)OC)[C@H]2CC=C(C)[C@@H]12 [I-90] | 22.8 | 4.3 |  |  |
| COC(=O)C1=CO[C@@H](OC(=O)N2CC=CCC2)[C@@H]2C(C)=CC[C@H]12 [I-91] | 5.1 | 21.6 |  |  |
| COC(=O)C1=CO[C@@H](OC(=O)NCCc2cccs2)[C@@H]2C(C)=CC[C@H]12 [I-92] | 15.2 | 8.1 |  |  |
| COC(=O)C1=CO[C@@H](OC(=O)N(C)CC2OCCO2)[C@@H]2C(C)=CC[C@H]12 [I-93] | 2.4 | 5.8 |  |  |
| COC(=O)C1=CO[C@@H](OC(=O)N2CCC(Cc3ccccc3)CC2)[C@@H]2C(C)=CC[C@H]12 [I-94] | 6.2 | 3.9 |  |  |
| COC(=O)C1=CO[C@@H](OC(=O)Nc2ccc(F)cc2F)[C@@H]2C(C)=CC[C@H]12 [I-154] | 56.2 |  |  |  |
